Patent US5612329A (priority 1995, dated 1997)

Tests used:
[1] = tested on: cancer cell lines; conditions: cited from earlier work
[2] = tested on: polyamine transporter; conditions: vs longer polyamines such as spermine and spermidine; cited from earlier work
[3] = tested on: prostatic carcinoma cells; conditions: cited from earlier work
[4] = tested on: KM12 cells; assay: In vitro cytotoxicity / cell growth inhibition, colon cancer; type: cell-based; conditions: Homo sapiens, 48 hr, read-out: log10 G150 (converted)
Procedure: (§1) The anti-proliferative activities of the aziridinylpolyamines obtained in Synthesis Examples 1-4 were assessed by determining log10 G150 values against human cancer cell lines using the screening strategy described by Boyd et al, Drug Devel. Res. 34:91-109 (1995).
(§2) More specifically, the compounds were tested at a minimum of five concentrations at 10-fold dilutions using a 48 hr continuous exposure protocol. Each cell line shown in Table 1 below was inoculated onto microtiter plates. After a pre-incubation period of 24-48 hr at 37° C., the test compounds were added, and the culture was incubated for an additional 48 hr at 37° C. Cell viability or cell growth end-point determinations were performed by fixation of the cells, followed by staining with sulforhodamine B (Monks et al, J. Natl. Cancer Inst., 83:757-766 (1991)).

[5] = tested on: COLO 205 cells; assay: as above; type: cell-based; conditions: Homo sapiens; COLO 205, colon cancer, 48 hr; read-out: log10 G150 (converted)
Procedure: as §1, §2

[6] = tested on: HCT-15 cells; assay: as above; type: cell-based; conditions: Homo sapiens; HCT-15, colon cancer, 48 hr; read-out: log10 G150 (converted)
Procedure: as §1, §2

[7] = tested on: HT29 cells; assay: as above; type: cell-based; conditions: Homo sapiens, HT-29, 48 hr, read-out: log10 G150 (converted)
Procedure: as §1, §2

[8] = tested on: HCT-116 cells; assay: as above; type: cell-based; conditions: Homo sapiens; HCT-116, colon cancer, 48 hr; read-out: log10 G150 (converted)
Procedure: as §1, §2

[9] = tested on: HCC-2998 cells; assay: as above; type: cell-based; conditions: Homo sapiens; HCC-2998, colon cancer, 48 hr; read-out: log10 G150 (converted)
Procedure: as §1, §2

[10] = tested on: SW-620 cells; assay: as above; type: cell-based; conditions: Homo sapiens; SW-620, colon cancer, 48 hr; read-out: log10 G150 (converted)
Procedure: as §1, §2

[11] = tested on: 786-0 cells; assay: In vitro cytotoxicity / cell growth inhibition, renal cancer; type: cell-based; conditions: Homo sapiens; 786-0, renal cancer, 48 hr; read-out: log10 G150 (converted)
Procedure: as §1, §2

[12] = tested on: UO-31 cells; assay: as above; type: cell-based; conditions: Homo sapiens; UO-31, renal cancer, 48 hr; read-out: log10 G150 (converted)
Procedure: as §1, §2

[13] = tested on: CAKI-1 cells; assay: as above; type: cell-based; conditions: Homo sapiens; CAKI-1, renal cancer, 48 hr; read-out: log10 G150 (converted)
Procedure: as §1, §2

[14] = tested on: ACHN cells; assay: as above; type: cell-based; conditions: Homo sapiens, 48 hr, read-out: log10 G150 (converted)
Procedure: as §1, §2

[15] = tested on: SN12C cells; assay: as above; type: cell-based; conditions: Homo sapiens, 48 hr, read-out: log10 G150 (converted)
Procedure: as §1, §2

[16] = tested on: TK-10 cells; assay: as above; type: cell-based; conditions: Homo sapiens; TK-10, renal cancer, 48 hr; read-out: log10 G150 (converted)
Procedure: as §1, §2

[17] = tested on: RXF-393 cells; assay: as above; type: cell-based; conditions: Homo sapiens; RXF-393, renal cancer, 48 hr; read-out: log10 G150 (converted)
Procedure: as §1, §2

[18] = tested on: A498 cells; assay: as above; type: cell-based; conditions: Homo sapiens, 48 hr, read-out: log10 G150 (converted)
Procedure: as §1, §2

[19] = tested on: NCl-H322M cells; assay: In vitro cytotoxicity / cell growth inhibition, non-small cell lung cancer; type: cell-based; conditions: Homo sapiens, 48 hr, read-out: log10 G150 (converted)
Procedure: as §1, §2

[20] = tested on: NCl-H23 cells; assay: as above; type: cell-based; conditions: Homo sapiens, 48 hr, read-out: log10 G150 (converted)
Procedure: as §1, §2

[21] = tested on: EKVX cells; assay: as above; type: cell-based; conditions: Homo sapiens, 48 hr, read-out: log10 G150 (converted)
Procedure: as §1, §2

[22] = tested on: HOP-62 cells; assay: as above; type: cell-based; conditions: Homo sapiens; HOP-62, non-small cell lung cancer, 48 hr; read-out: log10 G150 (converted)
Procedure: as §1, §2

[23] = tested on: HOP-92 cells; assay: as above; type: cell-based; conditions: Homo sapiens; HOP-92, non-small cell lung cancer, 48 hr; read-out: log10 G150 (converted)
Procedure: as §1, §2

[24] = tested on: NCl-H226 cells; assay: as above; type: cell-based; conditions: Homo sapiens, 48 hr, read-out: log10 G150 (converted)
Procedure: as §1, §2

[25] = tested on: A549/ATCC cells; assay: as above; type: cell-based; conditions: Homo sapiens, 48 hr, read-out: log10 G150 (converted)
Procedure: as §1, §2

[26] = tested on: NCl-H522 cells; assay: as above; type: cell-based; conditions: Homo sapiens, 48 hr, read-out: log10 G150 (converted)
Procedure: as §1, §2

[27] = tested on: NCl-H460 cells; assay: as above; type: cell-based; conditions: Homo sapiens, 48 hr, read-out: log10 G150 (converted)
Procedure: as §1, §2

[28] = tested on: CCRF-CEN cells; assay: In vitro cytotoxicity / cell growth inhibition, leukemia; type: cell-based; conditions: Homo sapiens, 48 hr, read-out: log10 G150 (converted)
Procedure: as §1, §2

[29] = tested on: K-562 cells; assay: as above; type: cell-based; conditions: Homo sapiens, K562; K-562, leukemia, 48 hr; read-out: log10 G150 (converted)
Procedure: as §1, §2

[30] = tested on: SR cells; assay: as above; type: cell-based; conditions: Homo sapiens, 48 hr, read-out: log10 G150 (converted)
Procedure: as §1, §2

[31] = tested on: MOLT-4 cells; assay: as above; type: cell-based; conditions: Homo sapiens; MOLT-4, leukemia, 48 hr; read-out: log10 G150 (converted)
Procedure: as §1, §2

[32] = tested on: RPMI-8226 cells; assay: as above; type: cell-based; conditions: Homo sapiens; RPMI-8226, leukemia, 48 hr; read-out: log10 G150 (converted)
Procedure: as §1, §2

[33] = tested on: HL-60 (TB) cells; assay: cells; type: cell-based; conditions: Homo sapiens, leukemia, 48 hr, read-out: log10 G150 (converted)
[34] = tested on: SNB-75 cells; assay: In vitro cytotoxicity / cell growth inhibition, CNS cancer; type: cell-based; conditions: Homo sapiens; SNB-75, CNS cancer, 48 hr; read-out: log10 G150 (converted)
Procedure: as §1, §2

[35] = tested on: U251 cells; assay: as above; type: cell-based; conditions: Homo sapiens, U-251, 48 hr, read-out: log10 G150 (converted)
Procedure: as §1, §2

[36] = tested on: SF-539 cells; assay: as above; type: cell-based; conditions: Homo sapiens; SF-539, CNS cancer, 48 hr; read-out: log10 G150 (converted)
Procedure: as §1, §2

[37] = tested on: SNB-19 cells; assay: as above; type: cell-based; conditions: Homo sapiens; SNB-19, CNS cancer, 48 hr; read-out: log10 G150 (converted)
Procedure: as §1, §2

[38] = tested on: SF-295 cells; assay: as above; type: cell-based; conditions: Homo sapiens; SF-295, CNS cancer, 48 hr; read-out: log10 G150 (converted)
Procedure: as §1, §2

[39] = tested on: SF-268 cells; assay: as above; type: cell-based; conditions: Homo sapiens; SF-268, CNS cancer, 48 hr; read-out: log10 G150 (converted)
Procedure: as §1, §2

[40] = relative to level predicted from in vitro studies; cited from earlier work
[41] = tested on: DNA; conditions: compared with chlorambucil per se; cited from earlier work
[42] = tested on: cells; conditions: suggested by the biological activity profile; cited from earlier work

Row | Compound | GI50 [4] | GI50 [5] | GI50 [6] | GI50 [7] | GI50 [8] | GI50 [9] | GI50 [10] | GI50 [11] | GI50 [12] | GI50 [13] | GI50 [14] | GI50 [15] | GI50 [16] | GI50 [17] | GI50 [18] | GI50 [19] | GI50 [20] | GI50 [21] | GI50 [22] | GI50 [23] | other results
1 | NCCCCNCCCN1CC1 [N-(3-aziridinylpropyl)-1,4-diaminobutane] | – | – | – | – | – | – | – | – | – | – | – | – | – | – | – | – | – | – | – | – | cytotoxicity against a variety of cancer cell lines [1]: cytotoxic against a variety of cancer cell lines in submicromolar concentrations
2 | NCCCCN1CC1 [N-(4-aminobutyl)aziridine] | – | – | – | – | – | – | – | – | – | – | – | – | – | – | – | – | – | – | – | – | effectiveness as substrate for the polyamine transporter [2]: less effective as a substrate for the polyamine transporter than the longer polyamines; cytotoxicity against prostatic carcinoma cells [3]: cytotoxic against prostatic carcinoma cells
3 | NCCCNCCCCN1CC1 [N-(4-aziridinylbutyl)-1,3-diaminopropane] | – | – | – | – | – | – | – | – | – | – | – | – | – | – | – | – | – | – | – | – | cytotoxicity against a variety of cancer cell lines [1]: cytotoxic against a variety of cancer cell lines in submicromolar concentrations
4 | C(CNCCCN1CC1)CNCCCN1CC1 [Synthesis Example 2, 1,11-Diaziridinyl-4,8-diazaundecane] | 19.5 µM | 13.2 µM | 21.9 µM | 18.6 µM | 19.5 µM | 20.4 µM | 26.3 µM | 3.39 µM | 17 µM | 4.07 µM | 3.89 µM | 6.76 µM | 14.5 µM | 3.89 µM | 28.2 µM | 36.3 µM | 10.7 µM | 25.1 µM | 6.31 µM | 11.2 µM | GI50 [24]: 18.6 µM; GI50 [25]: 13.2 µM; GI50 [26]: 11.2 µM; GI50 [27]: 2.95 µM; GI50 [28]: 3.72 µM; GI50 [29]: 19.5 µM; GI50 [30]: 3.09 µM; GI50 [31]: 3.09 µM; GI50 [32]: 22.4 µM; GI50 [33]: 2.69 µM; GI50 [34]: 3.98 µM; GI50 [35]: 6.92 µM; GI50 [36]: 11.2 µM; GI50 [37]: 18.2 µM; GI50 [38]: 14.5 µM; GI50 [39]: 10.7 µM
5 | CC(CCNCCCCNCCC(C)N1CC1)N1CC1 (stereo not shown) [Synthesis Example 3, 2,13-Diaziridinyl-5,10-diazatetradecane] | 81.3 µM | 14.8 µM | 41.7 µM | 20 µM | 26.3 µM | 55 µM | 22.4 µM | 3.8 µM | 35.5 µM | 5.01 µM | 5.75 µM | 9.55 µM | > 100 µM | 15.1 µM | 69.2 µM | 63.1 µM | 13.2 µM | 30.9 µM | 30.9 µM | 19.1 µM | GI50 [24]: 23.4 µM; GI50 [25]: 29.5 µM; GI50 [26]: 12.6 µM; GI50 [27]: 6.17 µM; GI50 [28]: 4.79 µM; GI50 [29]: 21.4 µM; GI50 [30]: 3.63 µM; GI50 [31]: 3.24 µM; GI50 [32]: 27.5 µM; GI50 [33]: 3.31 µM; GI50 [34]: 3.39 µM; GI50 [35]: 15.8 µM; GI50 [36]: 6.31 µM; GI50 [37]: 26.3 µM; GI50 [38]: 24 µM; GI50 [39]: 14.5 µM
6 | CC1CN1CCCNCCCCNCCCN1CC1C (stereo not shown) [Synthesis Example 4, 1,12-Di-(2-methyl-1-aziridinyl)-4,9-diazadodecane] | 64.6 µM | 10 µM | > 100 µM | 20.4 µM | 20.9 µM | 19.1 µM | 41.7 µM | 4.47 µM | 17.4 µM | 3.47 µM | 19.1 µM | 9.77 µM | 11.7 µM | 11 µM | > 100 µM | 91.2 µM | 8.71 µM | 32.4 µM | 10.7 µM | 14.5 µM | GI50 [24]: 19.1 µM; GI50 [25]: 18.2 µM; GI50 [26]: 7.24 µM; GI50 [27]: 9.12 µM; GI50 [28]: 3.98 µM; GI50 [29]: 29.5 µM; GI50 [30]: 4.9 µM; GI50 [31]: 2.95 µM; GI50 [32]: 31.6 µM; GI50 [33]: 2.95 µM; GI50 [34]: 2.34 µM; GI50 [35]: 13.2 µM; GI50 [36]: 12.9 µM; GI50 [37]: 25.7 µM; GI50 [38]: 47.9 µM; GI50 [39]: 20.4 µM
7 | NCCCCN(CCCN)CCCNC(=O)CCCc1ccc(N(CCCl)CCCl)cc1 [chlorambucil-spermidine conjugate] | – | – | – | – | – | – | – | – | – | – | – | – | – | – | – | – | – | – | – | – | in vivo potency [40]: in vivo potency does not reach the level predicted from in vitro studies; production of DNA cross-links [41]: highly efficient at producing DNA cross-links compared with chlorambucil per se; uptake by cells [42]: not taken up well by cells
